Assay results published in patent US3954985A, “Method for inhibiting bacterial growth with certain selected 3-chloro-tetrahydro-1,3-oxazines or oxazolidines” (INTERx Research Corporation, priority 1975, dated 1976).
Values joined by “and” are separate entries in the source; they are usually repeats but may differ in a detail not shown here. Identical values can stand only once. Counter-ions that a name gives are not always drawn.

Key:
[1] = Stability in the neat state at 40°C (positive chlorine by thiosulfate titration); type: physicochemical; conditions: HYDROCHLORIDE
Excerpt: ^a Weight of sample analyzed.
^b Volume of 10^^-2 N sodium thiosulfate required to titrate
the sample at time (T).
^c Percentage of positive chlorine in the sample analyzed.

[2] = Stability analysis in buffered solution (half-life); type: physicochemical
[3] = tested on: Bord. bronchiseptica ATCC 4617; assay: Bactericidal endpoint (time for complete sterilization), ATCC 4617; type: cell-based
Excerpt: (§1) The procedure employed to determine the antibacterial activity of 3-chloro-2,2,4,4-tetramethyl-tetrahydro1,3-oxazolidine and 3-chloro-2,2-[spiro-1'-methyl-4'-piperidinyl]-4,4-dimethyl-1,3-oxazolidinewas based primarily on a modification of the serial dilution method of analysis. However, instead of determining the minimum inhibitory concentration parameters for the compound investigated, applicants alternatively chose to determine the bactericidal endpoint for a given concentration of the compound investigated. Consequently, applicants' studies were established to determine the time required for complete sterilization of the micro-organism tested, when exposed to a given concentration of the compound investigated.
(§2) A stock solution of each compound identified above was prepared using an appropriate buffered solution.
(§3) For screening in the absence of a denaturing agent (e.g., horse serum) an equal volume of distilled water and the resulting solution was subjected to the screen.
(§4) For screening in the presence of a denaturing agent, a volume of the stock solution was diluted using an equal volume of 10% horse serum. When necessary, the final solution was adjusted to the desired pH using 1N HCl and the solution was permitted to stand at room temperature for thirty minutes prior to the screening procedure.
(§5) To 5 ml of the stock solution being evaluated, there was added 0.2 ml of an overnight broth culture containing the particular micro-organism being investigated (see above). At time intervals of 0.5, 1, 2, 3, 4, 5, . . . minutes, a loop of this suspension was subcultured into 5 ml of a sterile nutrient broth. All the samples were then incubated at 37°C for seven days with daily observation for evidence of bacterial growth. The time interval reported is for that sample in which no bacterial growth was observed after the incubation period.

[4] = tested on: Kleb. pneumoniae ATCC 10031; assay: Bactericidal endpoint (time for complete sterilization), ATCC 10031; type: cell-based
Excerpt: as §1, §2, §3, §4, §5

[5] = tested on: Staph. epidermidis ATCC 12228; assay: Bactericidal endpoint (time for complete sterilization), ATCC 12228; type: cell-based
Excerpt: as §1, §2, §3, §4, §5

[6] = tested on: Pseud. aeruginosa ATCC 9027; assay: Bactericidal endpoint (time for complete sterilization), ATCC 9027; type: cell-based; conditions: for Antibacterial activity, time, 9027: 0.5 M NaH2PO4 pH 7.0
Excerpt: as §1, §2, §3, §4, §5

Staph. aureus ATCC 6538 = assay: Bactericidal endpoint (time for complete sterilization), ATCC 6538; type: cell-based
Excerpt: as §1, §2, §3, §4, §5

E. coli ATCC 10536 = assay: Bactericidal endpoint (time for complete sterilization), ATCC 10536; type: cell-based
Excerpt: as §1, §2, §3, §4, §5

6501 = assay: Bactericidal endpoint (time for complete sterilization), 6501; type: cell-based
Excerpt: as §1, §2, §3, §4, §5

[7] = 0.1M Na2B4O7 pH 8.8, H2O, 8.13 × 10^-3 M (1333 ppm)
[8] = 0.1M Na2B4O7 pH 8.8, Serum, 8.13 × 10^-3 M (1333 ppm)
[9] = 0.1M NaH2PO4 pH 7.00, H2O, 8.92 × 10^-3 M (1463 ppm)
[10] = 0.1M NaH2PO4 pH 7.00, Serum, 8.92 × 10^-3 M (1463 ppm)
[11] = 0.1M NaOAc pH 4.6, H2O, 8.26 × 10^-3 M (1355 ppm)
[12] = 0.1M NaOAc pH 4.6, Serum, 8.26 × 10^-3 M (1355 ppm)
[13] = 0.1 M NaOAc pH 4.6, H2O, 6.52 × 10^-3 M (1428 ppm)
[14] = 0.1 M NaOAc pH 4.6, Serum, 5.69 × 10^-3 M (1246 ppm)
[15] = 0.5 M NaH2PO4 pH 7.0, H2O, 20.75 × 10^-3 M (4525 ppm)
[16] = 0.5 M NaH2PO4 pH 7.0, Serum, 19.88 × 10^-3 M (4334 ppm)
[17] = 0.5 M NaOAc pH 4.6, H2O, 21.00 × 10^-3 M (4578 ppm)
[18] = 0.5 M NaOAc pH 4.6, Serum, 20.50 × 10^-3 M (4469 ppm)

CN1CCC2(CC1)OCC(C)(C)N2Cl [3-CHLORO-2,2-[SPIRO-1'-METHYL-4'-PIPERIDINIUM]4,4-DIMETHYL-1,3-OXAZOLIDINE HYDROCHLORIDE]
%Cl (percentage of positive chlorine in the sample analyzed) ([1]; 0 days): 13.7% and 13.1%
%Cl (percentage of positive chlorine in the sample analyzed) ([1]; 1 day): 12.3% and 12.5%
%Cl (percentage of positive chlorine in the sample analyzed) ([1]; 2 days): 12.3% and 11.9%
%Cl (percentage of positive chlorine in the sample analyzed) ([1]; 3 days): 12.5% and 12.2%
%Cl (percentage of positive chlorine in the sample analyzed) ([1]; 4 days): 12.1% and 12.3%
%Cl (percentage of positive chlorine in the sample analyzed) ([1]; 5 days): 12.3% and 12.4%
%Cl (percentage of positive chlorine in the sample analyzed) ([1]; 7 days): 12.2% and 12.1%
%Cl (percentage of positive chlorine in the sample analyzed) ([1]; 10 days): 11.9% and 11.8%
%Cl (percentage of positive chlorine in the sample analyzed) ([1]; 14 days): 12.1% and 11.8%
%Cl (percentage of positive chlorine in the sample analyzed) ([1]; 21 days): 12.0% and 12.1%
%Cl (percentage of positive chlorine in the sample analyzed) ([1]; 28 days): 11.5% and 11.6%
%Cl (percentage of positive chlorine in the sample analyzed) ([1]; 35 days): 11.8% and 11.6%
%Cl (percentage of positive chlorine in the sample analyzed) ([1]; 51 days): 9.5%

CC1(C)COC(C)(C)N1Cl [3-chloro-2,2,4,4-tetramethyl-tetrahydro-1,3-oxazolidine]
half-life at 1520 µM ([2]; 0.1 M Na2B4O7 pH 9.3, 40 °C, initial concentration 1.52 × 10^-3 M): ~5 h
half-life at 2490 µM ([2]; 0.1 M Na2B4O7 pH 9.3, 40 °C, initial concentration 2.49 × 10^-3 M): ~4.6 h
half-life at 5980 µM ([2]; 0.1 M Na2B4O7 pH 9.3, 40 °C, initial concentration 5.98 × 10^-3 M): ~3.3 h
half-life at 1680 µM ([2]; 0.1 M NaH2PO4 pH 7.0, 40 °C, initial concentration 1.68 × 10^-3 M): ~70 h
half-life at 3050 µM ([2]; 0.1 M NaH2PO4 pH 7.0, 40 °C, initial concentration 3.05 × 10^-3 M): ~54 h
half-life at 6700 µM ([2]; 0.1 M NaH2PO4 pH 7.0, 40 °C, initial concentration 6.70 × 10^-3 M): ~54 h
half-life at 1880 µM ([2]; 0.1 M NaOAc pH 4.6, 40 °C, initial concentration 1.88 × 10^-3 M): 2.2 h
half-life at 2590 µM ([2]; 0.1 M NaOAc pH 4.6, 40 °C, initial concentration 2.59 × 10^-3 M): 2.2 h
half-life at 5470 µM ([2]; 0.1 M NaOAc pH 4.6, 40 °C, initial concentration 5.47 × 10^-3 M): 2.6 h
half-life at 6230 µM ([2]; H2O, initial concentration 6.23 × 10^-3 M): ~58 h
Germicidal activity time, 4617 [3, 7]: 3 min
Germicidal activity time, 4617 [3, 8]: 8 min
Germicidal activity time, 4617 [3, 9]: 1 min
Germicidal activity time, 4617 [3, 10]: > 10 min
Germicidal activity time, 4617 [3, 11]: 0.5 min
Germicidal activity time, 4617 [3, 12]: 6 min
Germicidal activity time, 10031 [4, 7]: 4 min
Germicidal activity time, 10031 [4, 8]: 9 min
Germicidal activity time, 10031 [4, 9]: 0.5 min
Germicidal activity time, 10031 [4, 10]: 5 min
Germicidal activity time, 10031 [4, 11]: 0.5 min
Germicidal activity time, 10031 [4, 12]: > 10 min
Germicidal activity time, 12228 [5, 7]: > 5 min
Germicidal activity time, 12228 [5, 8]: > 10 min
Germicidal activity time, 12228 [5, 9]: 1 min
Germicidal activity time, 12228 [5, 10]: 6 min
Germicidal activity time, 12228 [5, 11]: 0.5 min
Germicidal activity time, 12228 [5, 12]: > 10 min
Germicidal activity time, 9027 [6, 7]: 2 min
Germicidal activity time, 9027 [6, 8]: 4 min
Germicidal activity time, 9027 [6, 9]: 1 min
Germicidal activity time, 9027 [6, 10]: 7 min
Germicidal activity time, 9027 [6, 11]: 0.5 min
Germicidal activity time, 9027 [6, 12]: 4 min
Germicidal activity time, 6538 (Staph. aureus ATCC 6538; [7]): > 5 min
Germicidal activity time, 6538 (Staph. aureus ATCC 6538; [8]): > 10 min
Germicidal activity time, 6538 (Staph. aureus ATCC 6538; [9]): 3 min
Germicidal activity time, 6538 (Staph. aureus ATCC 6538; [10]): > 10 min
Germicidal activity time, 6538 (Staph. aureus ATCC 6538; [11]): 0.5 min
Germicidal activity time, 6538 (Staph. aureus ATCC 6538; [12]): > 10 min
Germicidal activity time, 10536 (E. coli ATCC 10536; [7]): 2 min
Germicidal activity time, 10536 (E. coli ATCC 10536; [8]): 4 min
Germicidal activity time, 10536 (E. coli ATCC 10536; [9]): 0.5 min
Germicidal activity time, 10536 (E. coli ATCC 10536; [10]): 3 min
Germicidal activity time, 10536 (E. coli ATCC 10536; [11]): 0.5 min
Germicidal activity time, 10536 (E. coli ATCC 10536; [12]): 3 min

CN1CCC2(CC1)OCC(C)(C)N2Cl [3-chloro-2,2-[spiro-1'-methyl-4'-piperidinyl]-4,4-dimethyl-1,3-oxazolidine]
Antibacterial activity, time, 6501 6501; [13]: 0.5 min
Antibacterial activity, time, 6501 6501; [14]: 3 min
Antibacterial activity, time, 6501 6501; [15]: 1 min
Antibacterial activity, time, 6501 6501; [16]: 7 min
Antibacterial activity, time, 6501 6501; [17]: 0.5 min
Antibacterial activity, time, 6501 6501; [18]: 0.5 min
Antibacterial activity, time, 4617 [3, 15]: 0.5 min
Antibacterial activity, time, 4617 [3, 16]: 5 min
Antibacterial activity, time, 4617 [3, 17]: 0.5 min
Antibacterial activity, time, 4617 [3, 18]: 1 min
Antibacterial activity, time, 10031 [4, 13]: 0.5 min
Antibacterial activity, time, 10031 [4, 14]: 7 min
Antibacterial activity, time, 10031 [4, 15]: 1 min
Antibacterial activity, time, 10031 [4, 16]: 8 min
Antibacterial activity, time, 10031 [4, 17]: 0.5 min
Antibacterial activity, time, 10031 [4, 18]: 0.5 min
Antibacterial activity, time, 12228 [5, 13]: 1 min
Antibacterial activity, time, 12228 [5, 14]: > 10 min
Antibacterial activity, time, 12228 [5, 15]: 1 min
Antibacterial activity, time, 12228 [5, 16]: 5 min
Antibacterial activity, time, 12228 [5, 17]: 0.5 min
Antibacterial activity, time, 12228 [5, 18]: 2 min
Antibacterial activity, time, 9025 [6, 13]: 0.5 min
Antibacterial activity, time, 9025 [6, 14]: > 10 min
Antibacterial activity, time, 9027 ([6]; H2O, 20.75 × 10^-3 M (4525 ppm)): 1 min
Antibacterial activity, time, 9027 ([6]; Serum, 19.88 × 10^-3 M (4334 ppm)): 10 min
Antibacterial activity, time, 9025 [6, 17]: 0.5 min
Antibacterial activity, time, 9025 [6, 18]: 1 min
Antibacterial activity, time, 6538 (Staph. aureus ATCC 6538; [13]): 5 min
Antibacterial activity, time, 6538 (Staph. aureus ATCC 6538; [14]): > 10 min
Antibacterial activity, time, 6538 (Staph. aureus ATCC 6538; [15]): 1 min
Antibacterial activity, time, 6538 (Staph. aureus ATCC 6538; [16]): > 10 min
Antibacterial activity, time, 6538 (Staph. aureus ATCC 6538; [17]): 0.5 min
Antibacterial activity, time, 6538 (Staph. aureus ATCC 6538; [18]): 3 min
Antibacterial activity, time, 10536 (E. coli ATCC 10536; [13]): 0.5 min
Antibacterial activity, time, 10536 (E. coli ATCC 10536; [14]): 2 min
Antibacterial activity, time, 10536 (E. coli ATCC 10536; [15]): 0.5 min
Antibacterial activity, time, 10536 (E. coli ATCC 10536; [16]): 7 min
Antibacterial activity, time, 10536 (E. coli ATCC 10536; [17]): 0.5 min
Antibacterial activity, time, 10536 (E. coli ATCC 10536; [18]): 0.5 min
